Test results published in US20250281462A1, “THERAPEUTICALLY EFFECTIVE ORAL ADMINISTRATION OF A 2 ARYLBENZIMIDAZOLE” (Tranquis Therapeutics, Inc., priority 2021, published 2025).

Settings: human, in vivo, 120 mg

AR AUC: 1.46
AR Cmax: 1.03
T1/2 (male): 10.2 h
Tmax (male): 1.75 h
accumulation ratio based on AUC(0-tau) (male, 7 days): 1.46
accumulation ratio based on Cmax (male, 7 days): 1.30
SMILES: CC(C)(C)c1ccc(-c2nc3cc(O)ccc3[nH]2)cc1 [TQS-621]
